Measurements reported in publication PMC6478789, “A chemical toolbox for the study of bromodomains and epigenetic signaling” (Nature Communications, 2019).

These compounds were tested against TDRD3 (Homo sapiens, UniProt Q9H7E2) (assay: Temperature shift assay (non-BRD reader domains)). Conditions: 10µM compound.
Assay type: binding
Procedure: (§1) Temperature shift assays have been described by Fedorov et al.[46]. Recombinant protein domains (bromodomain or kinases) at a concentration of 2 μM in 10 mM HEPES, pH 7.5, and 500 mM NaCl were mixed with 10 μM of chemical probes. Temperature-dependent protein unfolding profiles were measured using a Real-Time PCR Mx3005p machine (Stratagene).
(§2) Wu et al., Supplementary figures and tables 14
(§3) Supplementary Table 3: Selectivity screening data (non-BRD reader domains):
(§4) Temperature shift assay data of BRD probes screened against a diver se panel of methyl-lysine
(§5) reader domains. Compounds were screened a concentration of 10 µM. Shown are temperature

Chain of TDRD3 (Q9H7E2 555-615 limits assumed, species assumed): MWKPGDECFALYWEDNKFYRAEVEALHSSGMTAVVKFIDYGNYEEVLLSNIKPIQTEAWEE

SMILES	Tm (C) 10µM, temperature shift
CN1C[C@H](Nc2cnn(C)c(=O)c2Br)C[C@H](c2ccccc2)C1 [GSK4027]	-0.6 Kelvin

These compounds were tested on RBBP1 (assay: Temperature shift assay (non-BRD reader domains)). Conditions: 10µM compound.
Assay type: binding
Procedure: as §1, §2, §3, §4, §5

SMILES	Tm (C) 10µM, temperature shift
CN1C[C@H](Nc2cnn(C)c(=O)c2Br)C[C@H](c2ccccc2)C1 [GSK4027]	-0.7 Kelvin

These compounds were tested against WDR5 (Homo sapiens, UniProt P61964) (assay: Temperature shift assay (non-BRD reader domains)). Conditions: 10µM compound.
Assay type: binding
Procedure: as §1, §2, §3, §4, §5

SMILES	Tm (C) 10µM, temperature shift
CN1C[C@H](Nc2cnn(C)c(=O)c2Br)C[C@H](c2ccccc2)C1 [GSK4027]	0.2 Kelvin

What follows are compounds tested against 53BP1 (Homo sapiens, UniProt Q12888) (assay: Temperature shift assay (non-BRD reader domains)). Conditions: 10µM compound.
Assay type: binding
Procedure: as §1, §2, §3, §4, §5

Chain of 53BP1 (Q12888 1484-1603 limits assumed, species assumed): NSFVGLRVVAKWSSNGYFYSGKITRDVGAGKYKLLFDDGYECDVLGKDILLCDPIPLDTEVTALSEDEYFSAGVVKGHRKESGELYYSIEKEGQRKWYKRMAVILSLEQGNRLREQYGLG

SMILES	Tm (C) 10µM, temperature shift
CN1C[C@H](Nc2cnn(C)c(=O)c2Br)C[C@H](c2ccccc2)C1 [GSK4027]	-0.1 Kelvin

Each compound was assayed against T1, SND1 (Homo sapiens, UniProt Q7KZF4) (assay: Temperature shift assay (non-BRD reader domains)). Conditions: 10µM compound.
T1 sequence (Q7KZF4 729-787 limits assumed): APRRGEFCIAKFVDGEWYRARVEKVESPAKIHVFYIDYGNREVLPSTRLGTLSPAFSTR
Assay type: binding
Procedure: as §1, §2, §3, §4, §5

SMILES	Tm (C) 10µM, temperature shift
CN1C[C@H](Nc2cnn(C)c(=O)c2Br)C[C@H](c2ccccc2)C1 [GSK4027]	-1.0 Kelvin

What follows are compounds tested against FXR1 (Homo sapiens, UniProt P51114) (assay: Temperature shift assay (non-BRD reader domains)). Conditions: 10µM compound.
Assay type: binding
Procedure: as §1, §2, §3, §4, §5

Chain of FXR1 (P51114 2-132 limits assumed, species assumed): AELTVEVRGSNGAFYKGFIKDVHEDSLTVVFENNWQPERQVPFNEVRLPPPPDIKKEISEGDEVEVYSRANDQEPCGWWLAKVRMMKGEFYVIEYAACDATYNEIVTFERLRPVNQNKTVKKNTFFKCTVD

SMILES	Tm (C) 10µM, temperature shift
CN1C[C@H](Nc2cnn(C)c(=O)c2Br)C[C@H](c2ccccc2)C1 [GSK4027]	0.3 Kelvin

What follows are compounds tested against BRPF3 (Homo sapiens, UniProt Q9ULD4) (assay: Temperature shift assay (non-BRD reader domains)). Conditions: 10µM compound.
Assay type: binding
Procedure: as §1, §2, §3, §4, §5

Chain of BRPF3 (Q9ULD4 1076-1159 limits assumed, species assumed): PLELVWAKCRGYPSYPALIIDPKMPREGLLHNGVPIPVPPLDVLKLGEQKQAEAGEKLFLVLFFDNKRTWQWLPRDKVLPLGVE

SMILES	Tm (C) 10µM, temperature shift
CN1C[C@H](Nc2cnn(C)c(=O)c2Br)C[C@H](c2ccccc2)C1 [GSK4027]	-0.3 Kelvin

These compounds were tested against T2, UHRF1 (Homo sapiens, UniProt Q96T88) (assay: Temperature shift assay (non-BRD reader domains)). Conditions: 10µM compound.
T2 sequence (Q96T88 126-285 limits assumed): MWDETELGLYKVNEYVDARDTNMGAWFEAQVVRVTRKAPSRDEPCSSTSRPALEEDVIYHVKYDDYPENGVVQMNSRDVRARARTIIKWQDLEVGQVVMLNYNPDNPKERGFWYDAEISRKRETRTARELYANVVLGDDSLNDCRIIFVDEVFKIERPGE
Assay type: binding
Procedure: as §1, §2, §3, §4, §5

SMILES	Tm (C) 10µM, temperature shift
CN1C[C@H](Nc2cnn(C)c(=O)c2Br)C[C@H](c2ccccc2)C1 [GSK4027]	-0.2 Kelvin

Each compound was assayed against EED (Homo sapiens, UniProt O75530) (assay: Temperature shift assay (non-BRD reader domains)). Conditions: 10µM compound.
Assay type: binding
Procedure: as §1, §2, §3, §4, §5

Chain of EED (O75530 whole entry, species assumed, the tested form may be a part): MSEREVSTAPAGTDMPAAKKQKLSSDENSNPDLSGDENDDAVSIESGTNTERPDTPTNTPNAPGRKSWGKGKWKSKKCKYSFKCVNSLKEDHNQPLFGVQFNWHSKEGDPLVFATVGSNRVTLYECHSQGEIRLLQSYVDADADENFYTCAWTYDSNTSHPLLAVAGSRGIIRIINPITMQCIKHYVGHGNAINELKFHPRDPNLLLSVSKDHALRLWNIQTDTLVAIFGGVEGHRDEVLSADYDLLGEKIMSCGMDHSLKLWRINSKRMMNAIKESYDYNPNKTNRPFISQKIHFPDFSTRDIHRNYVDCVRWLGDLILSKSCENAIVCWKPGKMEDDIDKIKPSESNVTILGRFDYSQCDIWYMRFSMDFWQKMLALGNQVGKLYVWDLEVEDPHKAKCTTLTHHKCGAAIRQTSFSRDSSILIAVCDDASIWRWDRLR

SMILES	Tm (C) 10µM, temperature shift
CN1C[C@H](Nc2cnn(C)c(=O)c2Br)C[C@H](c2ccccc2)C1 [GSK4027]	-0.7 Kelvin
